The text below walks through data of ChEMBL document CHEMBL1909046, “DrugMatrix in vitro pharmacology data”.

Broadly, the IC50 is the midpoint of a concentration-inhibition curve. What is called Ki is the dissociation constant of the complex between target and ligand, obtained from inhibition or displacement.

Data set [1] can be described thus: DRUGMATRIX: Potassium Channel [KATP] radioligand binding (ligand: [3H] Glyburide). The data set is classed as cell membranes, Membrane. The note with it: hit-t15; Not Active = under 50% inhibition at 10 µM.
The next data set concerns the target T1, Neutrophil elastase (Homo sapiens, UniProt P08246).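 Also: inhibition of neutrophil elastase enzyme activity, measured with a p-nitroanilide-linked peptide substrate; in other assays of this panel Not Active means under 50% inhibition at 10 µM.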
T1 sequence (P08246 whole entry): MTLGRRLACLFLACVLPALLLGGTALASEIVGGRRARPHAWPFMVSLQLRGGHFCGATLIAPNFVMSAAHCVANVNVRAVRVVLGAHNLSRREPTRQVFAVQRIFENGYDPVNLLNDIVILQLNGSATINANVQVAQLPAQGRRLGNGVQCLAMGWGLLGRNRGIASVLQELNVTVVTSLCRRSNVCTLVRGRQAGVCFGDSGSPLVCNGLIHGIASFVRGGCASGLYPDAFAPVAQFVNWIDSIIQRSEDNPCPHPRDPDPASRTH
In kind it is tissue-based.

Data set [2] has as its target T2, Cholecystokinin receptor type A (Homo sapiens, UniProt P32238). Also: in other assays of this panel Not Active means under 50% inhibition at 10 µM.
T2 sequence (P32238 whole entry): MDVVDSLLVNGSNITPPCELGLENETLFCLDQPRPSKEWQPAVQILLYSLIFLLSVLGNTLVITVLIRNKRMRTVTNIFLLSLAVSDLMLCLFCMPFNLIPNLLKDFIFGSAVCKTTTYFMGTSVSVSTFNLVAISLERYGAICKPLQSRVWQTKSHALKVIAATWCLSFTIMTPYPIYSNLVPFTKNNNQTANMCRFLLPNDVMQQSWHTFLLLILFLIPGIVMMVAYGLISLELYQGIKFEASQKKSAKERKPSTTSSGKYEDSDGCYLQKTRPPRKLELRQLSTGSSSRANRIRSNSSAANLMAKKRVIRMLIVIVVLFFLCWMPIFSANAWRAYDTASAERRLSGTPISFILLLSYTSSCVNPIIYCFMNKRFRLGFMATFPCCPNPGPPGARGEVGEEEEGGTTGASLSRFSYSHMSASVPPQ
In kind it is cell membranes, Membrane. The note with it: 1321-n1.

The target in data set [3] is Sigma non-opioid intracellular receptor 1 (Homo sapiens, UniProt Q99720). The data set is described as follows: DRUGMATRIX: Sigma1 radioligand binding (ligand: [3H] Haloperidol). In kind it is cell membranes, Jurkat, Membrane. Particulars: jurkat; Not Active = under 50% inhibition at 10 µM.
Sequence of Sigma non-opioid intracellular receptor 1 (Q99720 whole entry): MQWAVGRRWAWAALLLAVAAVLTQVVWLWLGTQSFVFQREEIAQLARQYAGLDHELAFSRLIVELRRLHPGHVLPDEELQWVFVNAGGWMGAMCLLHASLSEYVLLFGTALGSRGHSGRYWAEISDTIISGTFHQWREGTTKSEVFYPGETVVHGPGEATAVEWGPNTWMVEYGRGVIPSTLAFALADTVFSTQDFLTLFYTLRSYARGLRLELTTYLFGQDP
Data set [4] has as its target T3, 3-hydroxy-3-methylglutaryl-coenzyme A reductase (Homo sapiens, UniProt P04035).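 Also: enzyme inhibition assay of HMG-CoA reductase using radiolabeled [14C]HMG-CoA as substrate; in other assays of this panel Not Active means under 50% inhibition at 10 µM.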
T3 sequence (P04035 whole entry): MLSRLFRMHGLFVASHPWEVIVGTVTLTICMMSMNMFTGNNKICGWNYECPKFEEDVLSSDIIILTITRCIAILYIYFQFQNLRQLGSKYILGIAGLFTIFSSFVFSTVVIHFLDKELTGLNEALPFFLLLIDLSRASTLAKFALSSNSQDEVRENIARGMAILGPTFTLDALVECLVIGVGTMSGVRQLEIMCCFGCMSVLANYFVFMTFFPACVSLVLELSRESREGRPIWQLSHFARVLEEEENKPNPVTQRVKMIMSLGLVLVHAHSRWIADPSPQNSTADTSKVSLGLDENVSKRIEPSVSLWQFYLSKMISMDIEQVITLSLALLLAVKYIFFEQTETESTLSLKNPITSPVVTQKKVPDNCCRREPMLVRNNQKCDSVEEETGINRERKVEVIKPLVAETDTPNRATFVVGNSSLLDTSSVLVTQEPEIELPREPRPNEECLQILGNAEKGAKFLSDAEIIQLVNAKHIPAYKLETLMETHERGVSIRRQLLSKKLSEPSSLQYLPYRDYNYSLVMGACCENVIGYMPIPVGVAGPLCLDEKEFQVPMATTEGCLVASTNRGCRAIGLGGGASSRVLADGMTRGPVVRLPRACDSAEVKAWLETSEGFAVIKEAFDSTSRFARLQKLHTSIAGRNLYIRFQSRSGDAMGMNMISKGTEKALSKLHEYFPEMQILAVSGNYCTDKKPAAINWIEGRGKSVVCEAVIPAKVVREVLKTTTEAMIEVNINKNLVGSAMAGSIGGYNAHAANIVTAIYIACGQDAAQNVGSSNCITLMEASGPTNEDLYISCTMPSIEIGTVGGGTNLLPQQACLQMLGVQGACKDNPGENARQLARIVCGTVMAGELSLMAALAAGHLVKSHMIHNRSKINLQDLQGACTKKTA
Details: species or system Escherichia coli.

Data set [5] concerns the target Epidermal growth factor receptor (Homo sapiens, UniProt P00533). The data set is described as follows: DRUGMATRIX: Protein Tyrosine Kinase, EGF Receptor enzyme inhibition (substrate: Poly(Glu:Tyr)). The data set is classed as cell-based, Insect cells. The note with it: insect cells; Not Active = under 50% inhibition at 10 µM.
Data set [6] concerns the target Vascular endothelial growth factor receptor 1 (Homo sapiens, UniProt P17948). The data set is classed as cell-based. The note with it: huvec. Also: in other assays of this panel Not Active means under 50% inhibition at 10 µM.
In a further data set the target is Cytochrome P450 2C19 (Homo sapiens, UniProt P33261). Particulars: bti-tn-5b1-4. Also: in other assays of this panel Not Active means under 50% inhibition at 10 µM.
Sequence of Cytochrome P450 2C19 (P33261 whole entry): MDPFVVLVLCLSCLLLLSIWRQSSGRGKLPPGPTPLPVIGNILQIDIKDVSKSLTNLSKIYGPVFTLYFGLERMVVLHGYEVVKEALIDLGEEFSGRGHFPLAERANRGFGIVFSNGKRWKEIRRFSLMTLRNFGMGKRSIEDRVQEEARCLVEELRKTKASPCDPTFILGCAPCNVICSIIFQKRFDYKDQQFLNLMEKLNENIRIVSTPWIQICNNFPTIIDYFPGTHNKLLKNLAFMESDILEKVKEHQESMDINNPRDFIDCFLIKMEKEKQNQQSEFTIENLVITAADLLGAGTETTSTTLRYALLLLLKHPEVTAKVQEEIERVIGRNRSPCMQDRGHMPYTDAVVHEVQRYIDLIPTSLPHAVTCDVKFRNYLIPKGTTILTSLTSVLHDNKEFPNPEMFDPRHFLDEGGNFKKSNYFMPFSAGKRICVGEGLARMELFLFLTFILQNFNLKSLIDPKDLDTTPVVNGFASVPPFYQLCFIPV
The target in another data set is T4, Progesterone receptor (Bos taurus, UniProt Q690N0).
T4 sequence (Q690N0 whole entry): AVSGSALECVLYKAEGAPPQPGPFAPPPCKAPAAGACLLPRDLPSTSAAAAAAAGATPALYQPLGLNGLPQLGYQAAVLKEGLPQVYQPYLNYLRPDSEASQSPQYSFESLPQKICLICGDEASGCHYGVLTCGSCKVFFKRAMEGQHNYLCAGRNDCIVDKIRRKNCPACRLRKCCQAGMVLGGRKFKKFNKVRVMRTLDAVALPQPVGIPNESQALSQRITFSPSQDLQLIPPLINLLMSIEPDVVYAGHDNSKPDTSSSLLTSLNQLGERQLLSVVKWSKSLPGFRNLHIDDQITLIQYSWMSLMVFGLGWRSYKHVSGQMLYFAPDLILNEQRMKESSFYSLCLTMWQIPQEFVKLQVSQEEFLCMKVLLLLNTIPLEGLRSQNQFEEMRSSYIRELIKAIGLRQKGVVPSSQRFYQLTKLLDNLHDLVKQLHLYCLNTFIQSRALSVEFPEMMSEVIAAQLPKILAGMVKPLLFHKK
The data set can be described thus: DRUGMATRIX: Progesterone radioligand binding (ligand: [3H] R-5020). The data set is classed as tissue-based, Uterus. The note with it: Not Active = under 50% inhibition at 10 µM.

Where a SMILES comes first, the peptide text is derived from it. Bridges are numbered along the chain shown (N, C = ends). [ ]: non-standard residue; d: D form. The star is where a group is joined. Ileψ(thiazoline)Cys = CC[C@H](C)[C@H](N)C1=N[C@H](C(=O)*)CS1; dOrn = NCCC[C@@H](N)C(=O)O

Sequence of Epidermal growth factor receptor (P00533 whole entry): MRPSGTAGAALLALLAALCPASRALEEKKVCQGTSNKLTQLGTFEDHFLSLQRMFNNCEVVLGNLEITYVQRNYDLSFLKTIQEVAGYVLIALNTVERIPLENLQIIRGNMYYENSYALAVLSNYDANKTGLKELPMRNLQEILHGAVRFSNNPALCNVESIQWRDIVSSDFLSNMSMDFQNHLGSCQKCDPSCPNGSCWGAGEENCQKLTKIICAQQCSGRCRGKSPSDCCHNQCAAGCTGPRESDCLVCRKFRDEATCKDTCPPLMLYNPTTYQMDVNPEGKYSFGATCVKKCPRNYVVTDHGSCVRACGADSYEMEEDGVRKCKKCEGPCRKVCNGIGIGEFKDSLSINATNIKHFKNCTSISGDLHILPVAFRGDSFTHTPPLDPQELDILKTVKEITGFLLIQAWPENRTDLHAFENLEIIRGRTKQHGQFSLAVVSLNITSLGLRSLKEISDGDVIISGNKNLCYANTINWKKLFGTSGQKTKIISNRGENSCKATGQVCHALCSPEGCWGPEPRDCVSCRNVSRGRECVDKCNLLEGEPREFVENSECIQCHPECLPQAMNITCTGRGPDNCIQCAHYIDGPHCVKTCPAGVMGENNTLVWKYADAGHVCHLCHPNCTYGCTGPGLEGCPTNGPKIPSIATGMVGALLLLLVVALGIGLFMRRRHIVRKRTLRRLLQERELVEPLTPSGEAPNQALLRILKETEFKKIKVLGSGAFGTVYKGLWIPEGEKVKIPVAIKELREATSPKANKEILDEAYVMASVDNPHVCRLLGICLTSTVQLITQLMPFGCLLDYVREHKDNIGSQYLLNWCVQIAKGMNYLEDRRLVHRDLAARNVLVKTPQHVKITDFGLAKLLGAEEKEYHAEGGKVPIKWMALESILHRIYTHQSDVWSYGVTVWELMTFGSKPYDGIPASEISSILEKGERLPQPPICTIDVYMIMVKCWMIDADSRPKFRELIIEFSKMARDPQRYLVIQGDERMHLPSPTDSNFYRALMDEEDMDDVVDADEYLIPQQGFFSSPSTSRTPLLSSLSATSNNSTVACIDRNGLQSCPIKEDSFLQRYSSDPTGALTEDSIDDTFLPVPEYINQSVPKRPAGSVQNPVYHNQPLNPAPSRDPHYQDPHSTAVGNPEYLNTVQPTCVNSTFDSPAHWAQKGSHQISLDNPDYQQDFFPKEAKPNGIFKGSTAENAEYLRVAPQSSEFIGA
Sequence of Vascular endothelial growth factor receptor 1 (P17948 whole entry): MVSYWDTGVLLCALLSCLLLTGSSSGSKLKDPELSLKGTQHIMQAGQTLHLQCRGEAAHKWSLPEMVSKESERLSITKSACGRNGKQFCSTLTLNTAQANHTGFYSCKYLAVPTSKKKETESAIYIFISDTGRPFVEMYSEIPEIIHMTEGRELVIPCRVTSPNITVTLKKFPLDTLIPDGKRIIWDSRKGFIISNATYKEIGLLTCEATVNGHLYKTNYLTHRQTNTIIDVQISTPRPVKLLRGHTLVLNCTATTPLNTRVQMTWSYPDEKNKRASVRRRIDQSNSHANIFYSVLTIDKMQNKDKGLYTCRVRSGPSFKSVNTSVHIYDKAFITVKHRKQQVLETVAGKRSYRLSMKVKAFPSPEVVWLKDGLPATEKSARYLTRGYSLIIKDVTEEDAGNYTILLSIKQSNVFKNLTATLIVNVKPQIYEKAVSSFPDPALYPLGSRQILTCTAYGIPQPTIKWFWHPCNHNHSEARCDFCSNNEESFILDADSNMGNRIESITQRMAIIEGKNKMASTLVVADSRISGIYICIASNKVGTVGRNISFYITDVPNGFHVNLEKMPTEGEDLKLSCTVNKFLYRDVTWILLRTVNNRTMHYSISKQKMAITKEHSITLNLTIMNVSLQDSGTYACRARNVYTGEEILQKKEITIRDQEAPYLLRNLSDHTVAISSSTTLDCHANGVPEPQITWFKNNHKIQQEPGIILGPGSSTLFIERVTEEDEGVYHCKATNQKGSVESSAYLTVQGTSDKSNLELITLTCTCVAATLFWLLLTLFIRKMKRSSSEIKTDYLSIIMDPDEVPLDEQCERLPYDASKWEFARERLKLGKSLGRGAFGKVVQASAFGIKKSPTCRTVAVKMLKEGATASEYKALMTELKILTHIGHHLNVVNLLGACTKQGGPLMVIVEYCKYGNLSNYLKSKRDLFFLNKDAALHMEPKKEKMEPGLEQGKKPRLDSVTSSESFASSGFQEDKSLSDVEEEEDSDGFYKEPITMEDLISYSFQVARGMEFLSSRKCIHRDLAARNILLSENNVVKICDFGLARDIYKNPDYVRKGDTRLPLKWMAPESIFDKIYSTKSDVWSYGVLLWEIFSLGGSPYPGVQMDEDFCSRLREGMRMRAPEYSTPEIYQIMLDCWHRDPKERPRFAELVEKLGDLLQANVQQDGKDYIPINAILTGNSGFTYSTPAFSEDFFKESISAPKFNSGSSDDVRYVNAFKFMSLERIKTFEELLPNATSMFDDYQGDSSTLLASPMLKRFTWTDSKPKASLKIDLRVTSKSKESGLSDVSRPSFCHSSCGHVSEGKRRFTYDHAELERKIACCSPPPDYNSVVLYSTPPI

In the case of `CC(C)NC[C@H](O)COc1cccc2[nH]ccc12`, the IC50 entry (in data set [1]; against Neutrophil elastase; in data set [2]; in data set [3]; in data set [4]; in data set [5]) was “Not Active” in each case. The IC50 entry in data set [6] was “Not Active”. The Ki result in data set [1] is reported as “Not Active”.

In the case of `O=c1cc(-c2ccccc2)oc2c1ccc1ccccc12` [ALPHA-NAPHTHOFLAVONE], the IC50 entry (in [1]; at Neutrophil elastase; in data set [2]; in data set [4]; in [5]; against Cytochrome P450 2C19) was “Not Active” each time. Moreover, the IC50 result (in data set [6]; on Progesterone receptor) was “Not Active” each time. Also, the Ki entry (in data set [1]; at Cytochrome P450 2C19) was “Not Active” in each case.

Take `Cn1cnc([N+](=O)[O-])c1Sc1ncnc2nc[nH]c12` [AZATHIOPRINE]: the IC50 entry (in data set [1]; against Neutrophil elastase; in data set [2]; in data set [3]; in data set [4]; in data set [5]) was “Not Active” each time. The IC50 entry (in data set [6]; at Progesterone receptor) was “Not Active” in each case. In [1], the Ki entry is recorded as “Not Active”.

In the case of `CC[C@H](C)[C@H](N)C1=N[C@H](C(=O)N[C@@H](CC(C)C)C(=O)N[C@H](CCC(=O)O)C(=O)N[C@H](C(=O)N[C@H]2CCCCNC(=O)[C@H](CC(N)=O)NC(=O)[C@@H](CC(=O)O)NC(=O)[C@H](Cc3cnc[nH]3)NC(=O)[C@@H](Cc3ccccc3)NC(=O)[C@H]([C@@H](C)CC)NC(=O)[C@@H](CCCN)NC2=O)[C@@H](C)CC)CS1` [BACITRACIN] ({Ileψ(thiazoline)Cys}-L[dE]IK[dOrn]I[dF]H[dD]N; lactam 4-C), the IC50 result (in [1]; on Neutrophil elastase; in data set [2]; in data set [3]; in [4]; against Cytochrome P450 2C19) was “Not Active” in each case. Also, the IC50 result (in data set [6]; at Progesterone receptor) was “Not Active” in each case. In addition, the Ki entry (in data set [1]; on Cytochrome P450 2C19) was “Not Active” in each case.

As for `CCCCOC(=O)c1ccc(N)cc1` [BUTAMBEN], the IC50 entry (in data set [1]; on Neutrophil elastase; in data set [2]; in data set [3]; in data set [4]; in data set [5]) was “Not Active” each time. Also, the IC50 entry (in [6]; at Progesterone receptor) was “Not Active” in each case. Besides, the Ki entry in data set [1] is listed as “Not Active”.

In the case of `CC(=O)O[C@]1(C(C)=O)CC[C@H]2[C@@H]3C=C(Cl)C4=CC(=O)CC[C@]4(C)[C@H]3CC[C@@]21C` [CHLORMADINONE ACETATE], the IC50 result (in [1]; on Neutrophil elastase; in data set [2]; in data set [3]; in data set [4]; in [5]) was “Not Active” in each case. The IC50 entry in data set [6] is “Not Active”; at Progesterone receptor (read-out: IC50) it was 5.26 nM. Also, the Ki entry in [1] is “Not Active”; at Progesterone receptor (read-out: Ki), 0.687 nM.

As for `O=C(O)c1cn(C2CC2)c2cc(N3CCNCC3)c(F)cc2c1=O` [CIPROFLOXACIN], the IC50 result (in data set [1]; against Neutrophil elastase; in [2]; in data set [3]; in [4]; in data set [5]) was “Not Active” throughout. The IC50 result (in [6]; on Progesterone receptor) was “Not Active” each time. For the same compound, in [1], the Ki result was “Not Active”.

Consider `Nc1nc(=O)[nH]cc1F` [FLUCYTOSINE], for which the IC50 result (in data set [1]; on Neutrophil elastase; in data set [2]; in data set [3]; in [4]; in data set [5]) was “Not Active” throughout. Also, the concentration for half-maximal inhibition (IC50) entry (in data set [6]; at Progesterone receptor) was “Not Active” each time. Further, in data set [1], the Ki result is “Not Active”.

Turning to `COc1c(N2CCNC(C)C2)c(F)cc2c(=O)c(C(=O)O)cn(C3CC3)c12` (stereo not given) [GATIFLOXACIN], the IC50 entry (in data set [1]; at Neutrophil elastase; in [2]; in [3]; in [4]; against Cytochrome P450 2C19) was “Not Active” throughout. Besides, the concentration for half-maximal inhibition (IC50) entry (in data set [6]; at Progesterone receptor) was “Not Active” in each case. For the same compound, the Ki entry (in data set [1]; at Cytochrome P450 2C19) was “Not Active” in each case.

Take GOLD SODIUM THIOMALATE: the IC50 entry (in data set [1]; on Neutrophil elastase; in data set [2]; in data set [3]; in data set [4]; on Cytochrome P450 2C19) was “Not Active” each time. The IC50 entry (in data set [6]; on Progesterone receptor) was “Not Active” in each case. Further, the Ki result (in data set [1]; at Neutrophil elastase; in data set [2]; in data set [3]; in [4]; on Cytochrome P450 2C19) was “Not Active” in each case. Besides, the Ki result (in data set [6]; at Progesterone receptor) was “Not Active” each time.
